Data taken from patent US9067897B2, “2,4-Diaminoquinazolines for spinal muscular atrophy” (Families of Spinal Muscular Atrophy, priority 2004, dated 2015).
Structures can show the parent of a compound that is named as a salt.

Key:
SMN = conditions: cited from earlier work
SMN2 promoter = SMN2 promoter assay (β-lactamase reporter) in NSC-34 cells; assay type: cell-based, mouse; conditions: SMN2 promoter driving β-lactamase, 12 point dose curve, average of 3-6 dose curve experiments

| Compound | EC50 (SMN2 promoter; Mus musculus) [nM] | further results |
| --- | --- | --- |
| phenylbuytreate |  | SMN expression (SMN): increase SMN expession |
| CCCC(=O)[O-].[Na+] [sodium butyrate] |  | SMN expression (SMN): increase SMN expession |
| Nc1nc(N)c2c(OCc3cc(F)ccc3F)cccc2n1 [Example 84, 5-(2,5-Difluorobenzyloxy)-quinazoline-2,4-diamine] | < 1000 |  |
| Nc1nc(N)c2c(Cc3ccsc3)cccc2n1 [Example 46, 5-Thiophen-3-ylmethylquinazoline-2,4-diamine] | < 1000 |  |
| CCCCCCCCOc1cccc2nc(N)nc(N)c12 [Example 38, 5-Octyloxyquinazoline-2,4-diamine] | < 1000 |  |
| Nc1nc(N)c2c(OCc3ccccc3)cccc2n1 [Example 35, 5-Benzyloxyquinazoline-2,4-diamine] | < 1000 |  |
| Nc1nc(N)c2c(OC3Cc4ccccc4C3)cccc2n1 [Example 40, 5-(Indan-2-yloxy)quinazoline-2,4-diamine] | < 1000 |  |
| 5-((1S,2R,5S)-6,6-Dimethylbieyclo[3.1.1]hept-2-ylmethoxy)quinazoline-2,4-diamine [Example 130] |  | EC50 (SMN2 promoter): < 1000 nM |
| Nc1nc(N)c2c(OCc3ccccc3I)cccc2n1 [Example 75, 5-(2-Iodo-benzyloxy)-quinazoline-2,4-diamine] | < 1000 |  |
| 5-(3-Fluorobenzyloxy)quinazoline-2,4-diamine [Example 102] |  | EC50 (SMN2 promoter): < 1000 nM |
| 2-(2,4-Diaminoquinazolin-5-yloxy)-1-(4-fluorophenyl)ethanol [Example 167] |  | EC50 (SMN2 promoter): < 1000 nM |
| Nc1nc(N)c2c(OCCCc3ccc(Cl)cc3)cccc2n1 [Example 27, 5-[3-(4-Chlorophenyl)propoxy]quinazoline-2,4-diamine] | < 1000 |  |
| Nc1nc(N)c2c(OCC3CCN(C(=O)c4cccc(I)c4)CC3)cccc2n1 [Example 135, [4-(2,4-Diaminoquinzolin-5-yloxymethyl)piperidin-1-yl]-(3-iodophenyl)methanone] |  | EC50 (SMN2 promoter): < 1000 nM |
| CC(Oc1cccc2nc(N)nc(N)c12)c1cccc(C(F)(F)F)c1 (centres unmarked) [Example 95, 5-[1-(3-Trifluoromethylphenyl)-ethoxy]-quinazoline-2,4-diamine] | < 1000 |  |

More lines, main results first:

| EC50 (SMN2 promoter; Mus musculus) [nM] | Compound | further results |
| --- | --- | --- |
| < 1000 | Nc1nc(N)c2c(OC(CO)c3ccc(F)cc3)cccc2n1 (centres unmarked) [Example 154, 2-(2,4-Diaminoquinazolin-5-yloxy)-2-(4-fluorophenyl)ethanol hydrochloride] |  |
| < 1000 | Nc1nc(N)c2c(OC3COc4ccc(Cl)cc43)cccc2n1 (centres unmarked) [Example 128, 5-(5-Chloro-2,3-dihydro-benzofuran-3-yloxy)-quinazoline-2,4-diamine] |  |
| < 1000 | CC(Oc1cccc2nc(N)nc(N)c12)c1cc(F)cc(F)c1 (centres unmarked) [Example 107, 5-[1-(3,5-Difluorophenyl)ethoxy]quinazoline-2,4-diamine] |  |
| < 1000 | CCC(Oc1cccc2nc(N)nc(N)c12)C1CCCCC1 (centres unmarked) [Example 129, 5-(1-Cyclohexylpropoxy)-quinazoline-2,4-diamine] |  |
| < 1000 | Nc1nc(N)c2c(O[C@H]3CCc4ccc(Cl)cc43)cccc2n1 [Example 149, 5-((S)-6-Chloroindan-1-yloxy)quinazoline-2,4-diamine] |  |
| < 1000 | Nc1nc(N)c2c(OCC(O)c3ccccc3)cccc2n1 (centres unmarked) [Example 157, 2-(2,4-Diaminoquinazolin-5-yloxy)-1-phenyl-ethanol] |  |
| 1000 to 5000 | C[C@H](Oc1cccc2nc(N)nc(N)c12)c1cccc2ccccc12 [Example 108, 5-((S)-1-Naphthalen-1-yl-ethoxy)-quinazoline-2,4-diamine] |  |
| < 1000 | Nc1nc(N)c2c(O[C@@H]3C[C@H]4CC[C@@H]3C4)cccc2n1 [Example 118, 5-((1R,2R,4S)-Bicyclo[2.2.1]hept-2-yloxy)quinazoline-2,4-diamine] |  |
| < 1000 | Nc1nc(N)c2c(OC(CO)c3ccc(Cl)cc3)cccc2n1 (centres unmarked) [Example 164, 2-(4-Chlorophenyl)-2-(2,4-diaminoquinazolin-5-yloxy)ethanol hydrochloride] |  |
